Measured values from US9718828B2 (MERCK SHARP & DOHME CORP., priority 2011, dated 2017).
Counter-ions that a name gives are not always drawn. Like-named read-outs stand apart in the source and are kept apart here.

Target: hBTK (full-length BTK, 6HIS-tag cleaved) (Homo sapiens (Human), UniProt Q06187)
Test: BTK enzymatic activity, LANCE TR-FRET assay (Assay Method C)
Format: biochemical
Conditions: 50 pM hBTK, 25 μM ATP
[1] = LANCE TR-FRET, class 100-1000 is given as ≧100 nM-<1 μM, read-out: IC50 Btk activity values - Assay Method C

Sequence of hBTK (full-length BTK, 6HIS-tag cleaved) (Q06187 whole entry): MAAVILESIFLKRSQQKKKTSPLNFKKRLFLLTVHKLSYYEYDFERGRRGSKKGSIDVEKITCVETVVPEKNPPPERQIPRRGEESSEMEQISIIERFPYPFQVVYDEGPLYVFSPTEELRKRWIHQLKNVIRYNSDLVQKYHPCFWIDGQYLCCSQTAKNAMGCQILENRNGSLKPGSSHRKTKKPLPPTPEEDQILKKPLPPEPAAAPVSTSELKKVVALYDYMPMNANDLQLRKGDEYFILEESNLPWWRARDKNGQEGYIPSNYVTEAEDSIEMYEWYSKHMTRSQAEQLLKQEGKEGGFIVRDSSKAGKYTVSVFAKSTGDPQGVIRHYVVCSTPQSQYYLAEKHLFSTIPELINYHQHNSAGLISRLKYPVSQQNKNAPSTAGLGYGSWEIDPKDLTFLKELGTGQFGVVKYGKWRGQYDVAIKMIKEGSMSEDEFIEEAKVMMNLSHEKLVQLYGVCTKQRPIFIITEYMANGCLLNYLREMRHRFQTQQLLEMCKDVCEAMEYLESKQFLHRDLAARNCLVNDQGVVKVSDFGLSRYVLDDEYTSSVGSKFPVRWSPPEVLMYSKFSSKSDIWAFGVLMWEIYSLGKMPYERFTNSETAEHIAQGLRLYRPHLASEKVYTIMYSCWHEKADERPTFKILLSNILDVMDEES

Structure (SMILES)	IC50 [1]	IC50 (Table D, Assay Method C (LANCE TR-FRET), read-out: IC50 BTK activity value)
CNC(=O)N1C[C@@H](c2nc(-c3ccc(C(=O)Nc4cc(C(F)(F)F)ccn4)cc3)c3c(N)nccn23)CC[C@@H]1C(F)(F)F [Example 412, (2R,5S)-5-[8-amino-1-(4-{[4-(trifluoromethyl)pyridin-2-yl]carbamoyl}phenyl)imidazo[1,5-a]pyrazin-3-yl]-N-methyl-2-(trifluoromethyl)piperidine-1-carboxamide]	< 10 nM	–
COCC(=O)N1CCO[C@@H](c2nc(-c3ccc(C(=O)Nc4cc(C(F)(F)F)ccn4)cc3)c3c(N)ncc(C)n23)C1 [Example 536, 4-{8-amino-3-[(2R)-4-(methoxyacetyl)morpholin-2-yl]-5-methylimidazo[1,5-a]pyrazin-1-yl}-N-[4-(trifluoromethyl)pyridin-2-yl]benzamide, TFA salt]	< 10 nM	–
COc1ccc(NC(=O)c2ccc(-c3nc([C@@H]4CCCN(C(=O)C5(C)COC5)C4)n4ccnc(N)c34)cc2)nc1 [Example 325, (R)-4-(8-amino-3-(1-(3-methyloxetane-3-carbonyl)piperidin-3-yl)imidazo[1,5-a]pyrazin-1-yl)-N-(5-methoxypyridin-2-yl)benzamide]	10 to 100 nM	–
Cc1cnc(N)c2c(-c3ccc(C(=O)Nc4cc(C(F)(F)F)ccn4)cc3)nc([C@H]3CN(CCO)CCO3)n12 [Example 540, 4-{8-amino-3-[(2R)-4-(2-hydroxyethyl)morpholin-2-yl]-5-methylimidazo[1,5-a]pyrazin-1-yl}-N-[4-(trifluoromethyl)pyridin-2-yl]benzamide, TFA salt]	< 10 nM	–
COC(=O)N1C[C@@H](c2nc(-c3ccc(C(=O)Nc4cc(C(F)(F)F)ccn4)cc3)c3c(N)nccn23)CC[C@@H]1C(F)(F)F [Example 430, methyl (2R,5S)-5-[8-amino-1-(4-{[4-(trifluoromethyl)pyridin-2-yl]carbamoyl}phenyl)imidazo[1,5-a]pyrazin-3-yl]-2-(trifluoromethyl)piperidine-1-carboxylate]	< 10 nM	–
CCOCC(=O)N1CCO[C@@H](c2nc(-c3ccc(C(=O)Nc4cc(C(F)(F)F)ccn4)cc3)c3c(N)ncc(C)n23)C1 [Example 537, 4-{8-amino-3-[(2R)-4-(ethoxyacetyl)morpholin-2-yl]-5-methylimidazo[1,5-a]pyrazin-1-yl}-N-[4-(trifluoromethyl)pyridin-2-yl]benzamide, TFA salt]	< 10 nM	–
CC(=O)N1CCC[C@@H](n2nc(-c3ccc(C(=O)Nc4cc(C(F)(F)F)ccn4)cc3)c3c(N)nccc32)C1 [Example 385, 4-{1-[(3R)-1-acetylpiperidin-3-yl]-4-amino-1H-pyrazolo[4,3-c]pyridin-3-yl}-N-[4-(trifluoromethyl)pyridin-2-yl]benzamide]	< 10 nM	–
Nc1ncnc2c1c(-c1ccc(C(=O)Nc3cc(C(F)(F)F)ccn3)cc1)nn2[C@@H]1CCCc2c1cnn2CCO [Example 561, 4-{4-amino-1-[(4R)-1-(2-hydroxyethyl)-4,5,6,7-tetrahydro-1H-indazol-4-yl]-1H-pyrazolo[3,4-d]pyrimidin-3-yl}-N-[4-(trifluoromethyl)pyridin-2-yl]benzamide, TFA salt]	< 10 nM	–
CCc1ccnc(NC(=O)c2ccc(-c3nc([C@@H]4CCCN(C(=O)C5(O)CC5)C4)n4ccnc(N)c34)cc2)c1 [Example 371, 4-(8-amino-3-{(3R)-1-[(1-hydroxycyclopropyl)carbonyl]piperidin-3-yl}imidazo[1,5-a]pyrazin-1-yl)-N-(4-ethylpyridin-2-yl)benzamide]	< 10 nM	–
CO[C@@H](C)c1cnc(N)c2c(-c3ccc(C(=O)Nc4cc(C(F)(F)F)ccn4)cc3)nc([C@@H]3CCCN(C(=O)C4(C)COC4)C3)n12 [Example 468, 4-(8-amino-5-[(1S)-1-methoxyethyl]-3-{(3R)-1-[(3-methyloxetan-3-yl)carbonyl]piperidin-3-yl}imidazo[1,5-a]pyrazin-1-yl)-N-[4-(trifluoromethyl)pyridin-2-yl]benzamide]	< 10 nM	–
Nc1nccn2c([C@@H]3CCCN(C(=O)CC(F)(F)F)C3)nc(-c3ccc(C(=O)Nc4cc(C(F)(F)F)ccn4)cc3)c12 [Example 332, 4-{8-amino-3-[(3R)-1-(3,3,3-trifluoropropanoyl)piperidin-3-yl]imidazo[1,5-a]pyrazin-1-yl}-N-[4-(trifluoromethyl)pyridin-2-yl]benzamide]	< 10 nM	–
COCCOCC(=O)N1CCO[C@@H](c2nc(-c3ccc(C(=O)Nc4cc(C(F)(F)F)ccn4)cc3)c3c(N)ncc(Cl)n23)C1 [Example 529, 4-(8-amino-5-chloro-3-{(2R)-4-[(2-methoxyethoxy)acetyl]morpholin-2-yl}imidazo[1,5-a]pyrazin-1-yl)-N-[4-(trifluoromethyl)pyridin-2-yl]benzamide]	< 10 nM	–
Nc1nccn2c([C@H]3CC[C@H](C(F)(F)F)N(CCO)C3)nc(-c3ccc(C(=O)Nc4cc(C(F)(F)F)ccn4)cc3)c12 [Example 437, 4-{8-amino-3-[(3S,6R)-1-(2-hydroxyethyl)-6-(trifluoromethyl)piperidin-3-yl]imidazo[1,5-a]pyrazin-1-yl}-N-[4-(trifluoromethyl)pyridin-2-yl]benzamide]	< 10 nM	–
CCC(=O)N1C[C@@H](c2nc(-c3ccc(C(=O)Nc4cc(C(F)(F)F)ccn4)cc3)c3c(N)nccn23)CC[C@@H]1C(F)(F)F [Example 415, 4-{8-amino-3-[(3S,6R)-1-propanoyl-6-(trifluoromethyl)piperidin-3-yl]imidazo[1,5-a]pyrazin-1-yl}-N-[4-(trifluoromethyl)pyridin-2-yl]benzamide]	< 10 nM	–
Cc1cnc(N)c2c(-c3ccc(C(=O)Nc4cc(C(F)(F)F)ccn4)cc3)nc([C@@H]3CCCN(C(=O)C4(C)COC4)C3)n12 [Example 453, 4-(8-amino-5-methyl-3-{(3R)-1-[(3-methyloxetan-3-yl)carbonyl]piperidin-3-yl}imidazo[1,5-a]pyrazin-1-yl)-N-[4-(trifluoromethyl)pyridin-2-yl]benzamide]	< 10 nM	–
Cc1cnc(NC(=O)c2ccc(-c3nc([C@@H]4CCCN(C(=O)C5(C)COC5)C4)n4ccnc(N)c34)cc2)s1 [Example 366, 4-(8-amino-3-{(3R)-1-[(3-methyloxetan-3-yl)carbonyl]piperidin-3-yl}imidazo[1,5-a]pyrazin-1-yl)-N-(5-methyl-1,3-thiazol-2-yl)benzamide]	< 10 nM	–
CCCOc1ccnc(NC(=O)c2ccc(-c3nc([C@@H]4CCCN(C(=O)C5(C)COC5)C4)n4ccnc(N)c34)c(F)c2)c1 [Example 481, 4-(8-amino-3-{(3R)-1-[(3-methyloxetan-3-yl)carbonyl]piperidin-3-yl}imidazo[1,5-a]pyrazin-1-yl)-3-fluoro-N-(4-propoxypyridin-2-yl)benzamide]	< 10 nM	–
Cc1cnc(N)c2c(-c3ccc(C(=O)Nc4cc(C(F)(F)F)ccn4)cc3F)nc([C@H]3CN(C(=O)C4(C)COC4)CCO3)n12 [Example 514, 4-(8-amino-5-methyl-3-{(2R)-4-[(3-methyloxetan-3-yl)carbonyl]morpholin-2-yl}imidazo[1,5-a]pyrazin-1-yl)-3-fluoro-N-[4-(trifluoromethyl)pyridin-2-yl]benzamide]	< 10 nM	–
CN1CCC[C@H]1C(=O)N1CCC[C@@H](c2nc(-c3ccc(C(=O)Nc4cc(C(F)(F)F)ccn4)cc3)c3c(N)nccn23)C1 [Example 341, 4-{8-amino-3-[(3R)-1-(1-methyl-L-prolyl)piperidin-3-yl]imidazo[1,5-a]pyrazin-1-yl}-N-[4-(trifluoromethyl)pyridin-2-yl]benzamide]	< 10 nM	–
Nc1nccn2c([C@@H]3CCCN(C(=O)c4cnccn4)C3)nc(-c3ccc(C(=O)Nc4cc(C(F)(F)F)ccn4)cc3)c12 [Example 336, 4-{8-amino-3-[(3R)-1-(pyrazin-2-ylcarbonyl)piperidin-3-yl]imidazo[1,5-a]pyrazin-1-yl}-N-[4-(trifluoromethyl)pyridin-2-yl]benzamide]	< 10 nM	–
Nc1nccn2c([C@H]3CN(C(=O)C4CC4)CCO3)nc(-c3ccc(C(=O)Nc4cc(C(F)(F)F)ccn4)cc3F)c12 [Example 512, 4-{8-amino-3-[(2R)-4-(cyclopropylcarbonyl)morpholin-2-yl]imidazo[1,5-a]pyrazin-1-yl}-3-fluoro-N-[4-(trifluoromethyl)pyridin-2-yl]benzamide, TFA salt]	< 10 nM	–
Nc1ncnc2c1c(-c1ccc(C(=O)Nc3cc(C(F)(F)F)ccn3)cc1)nn2[C@H]1CCCc2nn(CCO)cc21 [Example 564, 4-{4-amino-1-[(4S)-2-(2-hydroxyethyl)-4,5,6,7-tetrahydro-2H-indazol-4-yl]-1H-pyrazolo[3,4-d]pyrimidin-3-yl}-N-[4-(trifluoromethyl)pyridin-2-yl]benzamide, TFA salt]	< 10 nM	–
COCc1cnc(N)c2c(-c3ccc(C(=O)Nc4cc(C(F)(F)F)ccn4)cc3)nc([C@@H]3CCCN(C(=O)C4(C)COC4)C3)n12 [Example 449, 4-[8-amino-5-(methoxymethyl)-3-{(3R)-1-[(3-methyloxetan-3-yl)carbonyl]piperidin-3-yl}imidazo[1,5-a]pyrazin-1-yl]-N-[4-(trifluoromethyl)pyridin-2-yl]benzamide]	< 10 nM	0.656 nM
CC1(C(=O)N2CCC[C@@H](c3nc(-c4ccc(C(=O)Nc5cscn5)cc4)c4c(N)nccn34)C2)COC1 [Example 350, 4-(8-amino-3-{(3R)-1-[(3-methyloxetan-3-yl)carbonyl]piperidin-3-yl}imidazo[1,5-a]pyrazin-1-yl)-N-1,3-thiazol-4-ylbenzamide]	10 to 100 nM	–
CN(C)CC(=O)N1CCC[C@@H](c2nc(-c3ccc(C(=O)Nc4cc(C(F)(F)F)ccn4)cc3)c3c(N)nccn23)C1 [Example 347, 4-{8-amino-3-[(3R)-1-(N,N-dimethylglycyl)piperidin-3-yl]imidazo[1,5-a]pyrazin-1-yl}-N-[4-(trifluoromethyl)pyridin-2-yl]benzamide]	< 10 nM	–
CC(=O)N1C[C@H](c2nc(-c3ccc(C(=O)Nc4cc(C(F)F)ccn4)cc3F)c3c(N)ncc(C)n23)CC[C@@H]1C [Example 461, 4-{3-[(3R,6S)-1-acetyl-6-methylpiperidin-3-yl]-8-amino-5-methylimidazo[1,5-a]pyrazin-1-yl}-N-[4-(difluoromethyl)pyridin-2-yl]-3-fluorobenzamide]	< 10 nM	–
